Measurements reported in patent US10357526B2, “Compositions for the treatment of infections caused by mite Demodex spp” (PROCAPS S.A., priority 2014, dated 2019).

System: Demodex Spp
Assay: Evaluation of the solvent action on the survival of mites
Conditions: for Average life time of Acaro (mites) in the solvents: neat solvent
Description: Before evaluating the miticide effect of each of the oils, miscibility and safety thereof on mites was studied.

For `CCO` [Absolute Ethanol], the “Average life time of Acaro (mites) in the solvents” value (from here on “Average life time of Acaro (mites)”) was 0.03434 h.
In the case of `CCCCCCCC/C=C\CCCCCCCC(=O)OCCCCCCCCCC` [Cetiol V, decyl oleate], the “Average life time of Acaro (mites)” value is reported as 8 h and the “Acaricidal activity of the diluent” value (within 8 hours) is reported as “did not have acaricidal activity”.
With `CCCCCCCCCCCCCC(=O)OC(C)C` [Isopropyl Myristate] the “Average life time of Acaro (mites)” value was 3.37 h.
PEG-7 Glycerol Cocoate [Cetiol HE] was tested, and the “Average life time of Acaro (mites)” value was 0.08938 h.
